According to ChEMBL document CHEMBL6114965, “Novel dual-targeting PROTAC degraders of GSK-3β and CDK5: A promising approach for pancreatic cancer treatment” (Bioorg Med Chem, 2025):
Active and inactive are the calls of the source. The calls are words filed in the database; no cut-off is given here.

Columns and labels:
[1] = system: PANC-1; assay: Antiproliferative activity against human PANC-1 cells assessed as inhibition of cell viability by MTT assay; type: functional, cell-based
[2] = system: MIA PaCa-2; assay: Antiproliferative activity against human MIA PaCa-2 cells assessed as inhibition of cell viability by MTT assay; type: functional, cell-based
[3] = system: ASPC1; assay: Antiproliferative activity against human ASPC1 cells assessed as inhibition of cell viability by MTT assay; type: functional, cell-based
[4] = system: BXPC-3; assay: Antiproliferative activity against human BXPC-3 cells assessed as inhibition of cell viability by MTT assay; type: functional, cell-based
[5] = Permeability of compound in PBS at pH 7.4 at 500 uM incubated for 4 hrs by UV spectrophotometry based PAMPA; type: ADME; settings: read-out: permeability
[6] = Cytotoxicity against human HepG2 cells; type: toxicity, cell-based
[7] = Metabolic stability in pooled human liver microsomes assessed as half-life at 100 uM measured upto 120 mins by LC-MS/MS analysis; type: ADME, Microsome
[8] = Cytotoxicity against human A549 cells; type: toxicity, cell-based
[9] = target: T1, Protein cereblon/Cyclin-dependent kinase 5 (Homo sapiens, UniProt Q00535+Q96SW2); assay: PROTAC activity at CRBN/CDK5 in human PANC-1 cells assessed as induction of CDK5 degradation at 0.5 to 2.8 uM incubated for 10 hrs in presence of MG132 by Western blot analysis; type: cell-based; settings: dose 0.5-2.8 µM
Target sequence in this assay (Q00535 whole entry, looked up): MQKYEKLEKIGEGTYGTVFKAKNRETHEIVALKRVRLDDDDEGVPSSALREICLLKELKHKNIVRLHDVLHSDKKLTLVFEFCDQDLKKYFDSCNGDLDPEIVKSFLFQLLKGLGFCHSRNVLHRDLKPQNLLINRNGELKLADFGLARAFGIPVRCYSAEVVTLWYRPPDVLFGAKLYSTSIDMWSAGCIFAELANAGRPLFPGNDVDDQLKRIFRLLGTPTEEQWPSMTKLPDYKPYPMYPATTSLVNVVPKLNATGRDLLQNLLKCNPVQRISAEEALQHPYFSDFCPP
Target sequence in this assay (Q96SW2 whole entry, looked up): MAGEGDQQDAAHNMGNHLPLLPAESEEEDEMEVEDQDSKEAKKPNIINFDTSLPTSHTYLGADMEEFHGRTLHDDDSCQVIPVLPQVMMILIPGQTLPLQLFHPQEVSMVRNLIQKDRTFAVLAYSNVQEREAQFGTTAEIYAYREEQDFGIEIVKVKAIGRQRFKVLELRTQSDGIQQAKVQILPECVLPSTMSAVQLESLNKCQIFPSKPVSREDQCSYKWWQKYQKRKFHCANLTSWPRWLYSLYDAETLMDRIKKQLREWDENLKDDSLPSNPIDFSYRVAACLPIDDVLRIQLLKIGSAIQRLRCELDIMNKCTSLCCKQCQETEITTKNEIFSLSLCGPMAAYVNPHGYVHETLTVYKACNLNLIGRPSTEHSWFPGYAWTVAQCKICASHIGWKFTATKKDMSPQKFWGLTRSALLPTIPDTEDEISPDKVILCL

[10] = target: T1, Protein cereblon/Cyclin-dependent kinase 5; assay: PROTAC activity at CRBN/CDK5 in human PANC-1 cells assessed as induction of CDK5 degradation by target engagement binding based cell-ELISA
Target sequence in this assay (Q00535 whole entry): as the sequence (Q00535 whole entry, looked up) above
Target sequence in this assay (Q96SW2 whole entry): as the sequence (Q96SW2 whole entry, looked up) above

[11] = target: T1, Protein cereblon/Cyclin-dependent kinase 5; assay: PROTAC activity at CRBN/CDK5 in human PANC-1 cells assessed as induction of CDK5 degradation by measuring maximal efficacy by target engagement binding based cell-ELISA relative to control
Target sequence in this assay (Q00535 whole entry, looked up): as the sequence (Q00535 whole entry, looked up) above
Target sequence in this assay (Q96SW2 whole entry, looked up): as the sequence (Q96SW2 whole entry, looked up) above

[12] = target: T2, Protein cereblon/Glycogen synthase kinase-3 beta (Homo sapiens, UniProt P49841+Q96SW2); assay: PROTAC activity at CRBN/GSK3beta in human PANC-1 cells assessed as induction of GSK3beta degradation by target engagement binding based cell-ELISA
Target sequence in this assay (P49841 whole entry): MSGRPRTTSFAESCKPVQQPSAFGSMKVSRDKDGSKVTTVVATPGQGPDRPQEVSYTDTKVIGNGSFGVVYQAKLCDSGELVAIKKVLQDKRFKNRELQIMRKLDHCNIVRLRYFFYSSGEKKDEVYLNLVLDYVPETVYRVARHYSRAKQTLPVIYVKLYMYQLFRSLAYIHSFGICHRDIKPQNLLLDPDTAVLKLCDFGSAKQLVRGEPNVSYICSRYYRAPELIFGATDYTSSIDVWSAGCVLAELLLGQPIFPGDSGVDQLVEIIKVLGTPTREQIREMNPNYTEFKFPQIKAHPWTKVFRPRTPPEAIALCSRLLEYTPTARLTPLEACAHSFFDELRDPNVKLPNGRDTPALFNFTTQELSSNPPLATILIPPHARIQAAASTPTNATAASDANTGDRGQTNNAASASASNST
Target sequence in this assay (Q96SW2 whole entry): as the sequence (Q96SW2 whole entry, looked up) above

[13] = target: T2, Protein cereblon/Glycogen synthase kinase-3 beta; assay: PROTAC activity at CRBN/GSK3beta in human PANC-1 cells assessed as induction of GSK3beta degradation at 0.5 to 2.8 uM incubated for 10 hrs in presence of MG132 by Western blot analysis; type: cell-based; settings: dose 0.5-2.8 µM
Target sequence in this assay (P49841 whole entry, looked up): as the sequence (P49841 whole entry) above
Target sequence in this assay (Q96SW2 whole entry, looked up): as the sequence (Q96SW2 whole entry, looked up) above

[14] = target: T2, Protein cereblon/Glycogen synthase kinase-3 beta; assay: PROTAC activity at CRBN/GSK3beta in human PANC-1 cells assessed as induction of GSK3beta degradation by measuring maximal efficacy by target engagement binding based cell-ELISA relative to control
Target sequence in this assay (P49841 whole entry, looked up): as the sequence (P49841 whole entry) above
Target sequence in this assay (Q96SW2 whole entry, looked up): as the sequence (Q96SW2 whole entry, looked up) above

[15] = target: T3, Cytochrome P450 2B6 (Homo sapiens, UniProt P20813); assay: Inhibition of CYP2B6 (unknown origin) using bupropion as substrate […]; type: ADME
T3 sequence (P20813 whole entry): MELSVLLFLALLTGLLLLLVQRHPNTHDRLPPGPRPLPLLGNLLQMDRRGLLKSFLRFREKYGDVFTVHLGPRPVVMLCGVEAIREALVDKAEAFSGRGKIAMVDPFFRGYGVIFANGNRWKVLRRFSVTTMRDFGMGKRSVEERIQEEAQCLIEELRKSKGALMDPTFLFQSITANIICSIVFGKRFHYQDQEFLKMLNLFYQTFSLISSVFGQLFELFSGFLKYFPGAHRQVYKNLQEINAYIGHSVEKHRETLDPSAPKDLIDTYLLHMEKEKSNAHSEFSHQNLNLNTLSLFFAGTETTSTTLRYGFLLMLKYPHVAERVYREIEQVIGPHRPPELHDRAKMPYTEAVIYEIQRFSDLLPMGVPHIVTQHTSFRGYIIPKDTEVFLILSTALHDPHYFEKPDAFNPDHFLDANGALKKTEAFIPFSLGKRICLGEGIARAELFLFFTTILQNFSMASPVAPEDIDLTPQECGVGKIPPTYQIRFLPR

[16] = target: T2, Protein cereblon/Glycogen synthase kinase-3 beta; assay: PROTAC activity at CRBN/GSK3beta in human PANC-1 cells assessed as induction of GSK3beta degradation at 1 to 2.8 uM incubated for 10 hrs by Western blot analysis; type: cell-based; settings: dose 1-2.8 µM
Target sequence in this assay (P49841 whole entry, looked up): as the sequence (P49841 whole entry) above
Target sequence in this assay (Q96SW2 whole entry, looked up): as the sequence (Q96SW2 whole entry, looked up) above

[17] = target: T1, Protein cereblon/Cyclin-dependent kinase 5; assay: PROTAC activity at CRBN/CDK5 in human PANC-1 cells assessed as induction of CDK5 degradation at 1 to 2.8 uM incubated for 10 hrs by Western blot analysis; type: cell-based; settings: dose 1-2.8 µM
Target sequence in this assay (Q00535 whole entry, looked up): as the sequence (Q00535 whole entry, looked up) above
Target sequence in this assay (Q96SW2 whole entry, looked up): as the sequence (Q96SW2 whole entry, looked up) above

[18] = target: Protein cereblon/Cyclin-dependent kinase 2 (Homo sapiens, UniProt P24941+Q96SW2); assay: PROTAC activity at CRBN/CDK2 (unknown origin) assessed as induction of CDK2 degradation; type: protein assay

| Compound | IC50 [1] [nM] | IC50 [2] [nM] | IC50 [3] [nM] | IC50 [4] [nM] | Papp at 4 h, 500 µM [5] [×10⁻⁶ cm/s] | CC50 [6] [nM] | half-life at 100 µM [7] [min] | CC50 [8] [nM] | Activity [9] | DC50 [10] [nM] | Emax [11] [%] | DC50 [12] [nM] | Activity [13] | Emax [14] [%] | IC50 [15] [nM] | Activity [16] | Activity [17] | DC50 [18] [nM] |
| --- | --- | --- | --- | --- | --- | --- | --- | --- | --- | --- | --- | --- | --- | --- | --- | --- | --- | --- |
| O=C1Cc2c([nH]c3ccc(Br)cc23)-c2ccccc2N1 [KENPAULLONE] | 8600 | 7200 | 6500 | 9100 |  |  |  |  |  |  |  |  |  |  |  |  |  |  |
| OC[C@@H](O)[C@@H](O)[C@H](O)[C@H](O)CO [MANNITOL] |  |  |  |  | 4.08 |  |  |  |  |  |  |  |  |  |  |  |  |  |
| CC(=O)c1c(C)c2cnc(Nc3ccc(N4CCNCC4)cn3)nc2n(C2CCCC2)c1=O [PALBOCICLIB] |  |  |  |  |  | 8120 | 57 | 7950 |  |  |  |  |  |  |  |  |  |  |
| O=C1CCC(N2C(=O)c3cccc(NCCOCCOCCOCC(=O)N4CCN(CCCn5cc(C6=C(c7c[nH]c8ccccc78)C(=O)NC6=O)c6ccccc65)CC4)c3C2=O)C(=O)N1 (centres undefined) | 5150 | 6610 | 5560 | 5980 |  |  |  |  | inactive | 210 | 81 | 96 | inactive | 87 |  |  |  |  |
| Cc1cc(=O)n(-c2ccccc2)n1C [ANTIPYRINE] |  |  |  |  | 15.2 |  |  |  |  |  |  |  |  |  |  |  |  |  |
| O=C1CCC(N2C(=O)c3cccc(NCCOCCOCCOCC(=O)N4CCC(NC(=O)c5c[nH]nc5NC(=O)c5c(Cl)cccc5Cl)CC4)c3C2=O)C(=O)N1 (centres undefined) | 2750 | 3810 | 3570 | 3140 | 61.2 |  |  |  | inactive | 36 | 92 | 90 | inactive | 89 |  |  |  |  |
| O=C1CCC(N2C(=O)c3cccc(NCC(=O)N4CCC(C(=O)N5CCN(CCCn6cc(C7=C(c8c[nH]c9ccccc89)C(=O)NC7=O)c7ccccc76)CC5)CC4)c3C2=O)C(=O)N1 (centres undefined) | 2810 | 3010 | 3580 | 3540 |  |  |  |  | inactive | 321 | 78 | 125 | inactive | 81 |  |  |  |  |
| CN[C@H]1CC[C@@H](c2ccc(Cl)c(Cl)c2)c2ccccc21 [SERTRALINE] |  |  |  |  |  |  |  |  |  |  |  |  |  |  | 12500 |  |  |  |
| O=C1CCC(N2C(=O)c3ccc(N4CCN(CCOCCC(=O)N5CCN(CCCn6cc(C7=C(c8c[nH]c9ccccc89)C(=O)NC7=O)c7ccccc76)CC5)CC4)cc3C2=O)C(=O)N1 (centres undefined) | 2500 | 2430 | 3870 | 2870 | 69.2 |  |  |  | inactive | 52 | 89 | 56 | inactive | 88 |  | Active | Active |  |
| O=C1CCC(N2C(=O)c3cccc(NCCOCCOCCOCCOCCOCn4cc(CN5CCN(CCCn6cc(C7=C(c8c[nH]c9ccccc89)C(=O)NC7=O)c7ccccc76)CC5)nn4)c3C2=O)C(=O)N1 (centres undefined) | 5720 | 4670 | 3350 | 4870 |  |  |  |  | inactive | 330 | 78 | 220 | inactive | 75 |  |  |  |  |
| Cc1cscc1C(=O)n1nc(Nc2ccc(S(=O)(=O)NCCOCc3cn(CCOCCOCCNc4cccc5c4C(=O)N(C4CCC(=O)NC4=O)C5=O)nn3)cc2)nc1N (centres undefined) |  |  |  |  |  |  |  |  |  |  |  |  |  |  |  |  |  | 61 |
| CN(CCC(=O)N1CCC(NC(=O)c2c[nH]nc2NC(=O)c2c(Cl)cccc2Cl)CC1)C(=O)CNc1cccc2c1C(=O)N(C1CCC(=O)NC1=O)C2=O (centres undefined) | 2340 | 3120 | 2560 | 2890 | 31.3 |  |  |  | inactive | 45 | 90 | 152 | inactive | 78 |  |  |  |  |
| O=C1CCC(N2C(=O)c3ccc(N4CCN(CCOCCC(=O)N5CCC(NC(=O)c6c[nH]nc6NC(=O)c6c(Cl)cccc6Cl)CC5)CC4)cc3C2=O)C(=O)N1 (centres undefined) | 1950 | 2190 | 2250 | 2210 | 38.6 |  |  |  | inactive | 32 | 90 | 98 | inactive | 89 |  | Active | Active |  |
